For 14 compounds, EC50 results are on record in US12473282B2, “Biphenyl fluorine double bond derivative, preparation method therefor, and pharmaceutical application thereof” (Abbisko Therapeutics Co., Ltd., priority 2020, dated 2025).

The experiment in a line: Jurkat reporter gene cellular assay. Format: cell-based. The conditions noted are these: Homo sapiens; Jurkat/NF-κB-luc/PD1 + Raji-PD-L1 coculture, OKT3 1 μg/mL, 6 hrs, activation fold; read-out: Cell Activity EC50. How it is done:
The effect of compounds of the examples of the present invention and positive compounds on the interaction between PD-1 and PD-L1 expressed on cell surfaces, and the related influence on T cell functions, were determined by a Jurkat reporter gene cellular assay.
Briefly, the reporter gene plasmid of NF-κB-luc and the plasmid of human PD-1 were transfected into Jurkat cells to establish a stably transfected cell line capable of stably expressing both PD-1 and NF-κB-Luc reporter genes; the expression level of PD-1 on the cell surface was confirmed by flow cytometry; and the expression of the reporter gene was confirmed via the response of the reporter gene stimulated by OKT-3 and Raiji cells.
In addition, the plasmid of human PD-L1 was transfected into Raji cells to obtain a cell line capable of stably expressing PD-L1. Jurkat/NF-κB-luc/PD1 cells and Raji-PD-L1 cells were then cocultured and stimulated with OKT-3. On this basis, the compounds were added, and the enhancement of the signal pathway of T cell activation by the inhibitory effect of the compounds on the interaction between PD-1 and PD-L1 was evaluated by readings of reporter gene responses. The specific experimental process was as follows: • 1. 30 μL of compound or antibody solution was added to each well of a white 96-well plate (corning, 3610) at different diluted concentrations, and 10 μL of OKT3 (Biolegend, 317326) was then added (the final concentration of OKT3: 1 μg/mL); • 2. 20 μL of Raji-PD-L1 cell suspension was added to each well with 5*10^4 cells for each well, and was incubated in an incubator for 20 min; • 3. 20 μL of Jurkat/NF-Kb-luc/PD-1 cell suspension was added to each well with 5*10^4 cells for each well, and well mixed, and 6 hrs later, Bright-glo (Promega, E2620) was applied and plates were read on Envision; • 4. The reading of each well treated with the compound was compared with the reading of each well treated with DMSO to obtain the activation fold of the compound; • 5. EC50 values of compounds and positive compounds of the examples of the present invention were determined by non-linear regression analysis of activation folds at different compound concentrations.
In general terms: A reporter such as luciferase makes a cellular process visible.
`COc1cc(/C(F)=C/c2cccc(-c3cccc(NC(=O)c4nc5c(n4C)CCN(CCC46CCC(C(=O)O)(CC4)C6)C5)c3Cl)c2Cl)ncc1CN1CCC[C@H]1C(C)(C)O` [Example 52, (S,Z)-4-(2-(2-((2,2′-dichloro-3′-(2-fluoro-2-(5-((2-(2-hydroxypropan-2-yl)pyrrolidin-1-yl)methyl)-4-methoxypyridin-2-yl)vinyl)-[1,1′-biphenyl]-3-yl)carbamoyl)-1-methyl-1,4,6,7-tetrahydro-5H-imidazo [4,5-c]pyridin-5-yl)ethyl)bicyclo[2.2.1]heptane-1-carboxylic acid]: the EC50 (in general, the concentration at which the effect is half-maximal) was 0.116 µM. As to `COc1cc(/C(F)=C/c2cccc(-c3cccc(NC(=O)c4nc5c(n4C)CCN(CCC46CCC(C(=O)O)(CC4)C6)C5)c3Cl)c2Cl)ncc1CNC12CC3CC(CC(C3)C1)C2` [Example 53, (Z)-4-(2-(2-((3′-(2-(5-((adamantan-1-ylamino)methyl)-4-methoxypyridin-2-yl)-2-fluorovinyl)-2,2′-dichloro-[1,1′-biphenyl]-3-yl)carbamoyl)-1-methyl-1,4,6,7-tetrahydro-5H-imidazo[4,5-c]pyridin-5-yl)ethyl)bicyclo[2.2.1]heptane-1-carboxylic acid], the EC50 is 1.03 µM.

With `COc1cc(/C(F)=C/c2cccc(-c3cccc(NC(=O)c4nc5c(n4C)CCN(CCC46CCC(C(=O)O)(CC4)C6)C5)c3Cl)c2Cl)ncc1CN(C)CCN(C)C` [Example 54, (Z)-4-(2-(2-((2,2′-dichloro-3′-(2-(5-(((2-(dimethylamino)ethyl)(methyl)amino)methyl)-4-methoxypyridin-2-yl)-2-fluorovinyl)-[1,1′-biphenyl]-3-yl)carbamoyl)-1-methyl-1,4,6,7-tetrahydro-5H-imidazo [4,5-c]pyridin-5-yl)ethyl)bicyclo[2.2.1]heptane-1-carboxylic acid], the EC50 is 0.251 µM. As for `COc1cc(/C(F)=C/c2cccc(-c3cccc(NC(=O)c4nc5c(n4C)CCN(CCC46CCC(C(=O)O)(CC4)C6)C5)c3Cl)c2Cl)ncc1CN1CCC2(CCC2)C1` [Example 55, (Z)-4-(2-(2-((3′-(2-(5-((6-azaspiro[3.4]octan-6-yl)methyl)-4-methoxypyridin-2-yl)-2-fluorovinyl)-2,2′-dichloro-[1,1′-biphenyl]-3-yl)carbamoyl)-1-methyl-1,4,6,7-tetrahydro-5H-imidazo[4,5-c]pyridin-5-yl)ethyl)bicyclo[2.2.1]heptane-1-carboxylic acid], the EC50 was found to be 0.149 µM. Under `COc1cc(/C(F)=C/c2cccc(-c3cccc(NC(=O)c4nc5c(n4C)CCN(CCC46CCC(C(=O)O)(CC4)C6)C5)c3Cl)c2Cl)ncc1CN1CC[C@@H](C)C1` [Example 56, (R,Z)-4-(2-(2-((2,2′-dichloro-3′-(2-fluoro-2-(4-methoxy-5-((3-methylpyrrolidin-1-yl)methyl)pyridin-2-yl)vinyl)-[1,1′-biphenyl]-3-yl)carbamoyl)-1-methyl-1,4,6,7-tetrahydro-5H-imidazo[4,5-c]pyridin-5-yl)ethyl)bicyclo[2.2.1]heptane-1-carboxylic acid] stands 0.0614 µM; under `COc1cc(/C(F)=C/c2cccc(-c3cccc(NC(=O)c4nc5c(n4C)CCN(CCC46CCC(C(=O)O)(CC4)C6)C5)c3Cl)c2Cl)ncc1CN1C[C@@H](O)[C@H](F)C1` [Example 57, 4-(2-(2-((2,2′-dichloro-3′-((Z)-2-fluoro-2-(5-(((3R,4R)-3-fluoro-4-hydroxypyrrolidin-1-yl)methyl)-4-methoxypyridin-2-yl)vinyl)-[1,1-biphenyl]-3-yl)carbamoyl)-1-methyl-1,4,6,7-tetrahydro-5H-imidazo [4,5-c]pyridin-5-yl)ethyl)bicyclo[2.2.1]heptane-1-carboxylic acid], 0.072 µM; under `COc1cc(/C(F)=C/c2cccc(-c3cccc(NC(=O)c4nc5c(n4C)CCN(CCC46CCC(C(=O)O)(CC4)C6)C5)c3Cl)c2Cl)ncc1CN1CC[C@@H](F)C1` [Example 60, (R,Z)-4-(2-(2-((2,2′-dichloro-3′-(2-fluoro-2-(5-((3-fluoropyrrolidin-1-yl)methyl)-4-methoxypyridin-2-yl)vinyl)-[1,1′-biphenyl]-3-yl)carbamoyl)-1-methyl-1,4,6,7-tetrahydro-5H-imidazo[4,5-c]pyridin-5-yl)ethyl)bicyclo[2.2.1]heptane-1-carboxylic acid], 0.134 µM. With `COc1cc(/C(F)=C/c2cccc(-c3cccc(NC(=O)c4nc5c(n4C)CCN(CCC46CCC(C(=O)O)(CC4)C6)C5)c3Cl)c2Cl)ncc1CN1CCC(O)(C(F)(F)F)C1` (centres unmarked) [Example 61, (Z)-4-(2-(2-((2,2′-dichloro-3′-(2-fluoro-2-(5-((3-hydroxy-3-(trifluoromethyl)pyrrolidin-1-yl)methyl)-4-methoxypyridin-2-yl)vinyl)-[1,1′-biphenyl]-3-yl)carbamoyl)-1-methyl-1,4,6,7-tetrahydro-5H-imidazo [4,5-c]pyridin-5-yl)ethyl)bicyclo[2.2.1]heptane-1-carboxylic acid], the EC50 was determined as 0.522 µM. In the case of `COc1cc(/C(F)=C/c2cccc(-c3cccc(NC(=O)c4nc5c(n4C)CCN(CCC46CCC(C(=O)O)(CC4)C6)C5)c3Cl)c2Cl)ncc1CN1CCC2(CC(O)C2)C1` (centres unmarked) [Example 62, (Z)-4-(2-(2-((2,2′-dichloro-3′-(2-fluoro-2-(5-((2-hydroxy-6-azaspiro [3.4]octan-6-yl)methyl)-4-methoxypyridin-2-yl)vinyl)-[1,1′-biphenyl]-3-yl)carbamoyl)-1-methyl-1,4,6,7-tetrahydro-5H-imidazo[4,5-c]pyridin-5-yl)ethyl)bicyclo[2.2.1]heptane-1-carboxylic acid], the half-maximal effective concentration (EC50) was determined as 0.117 µM.

Regarding `COc1cc(/C(F)=C/c2cccc(-c3cccc(NC(=O)c4nc5c(n4C)CCN(CCC46CCC(C(=O)O)(CC4)C6)C5)c3Cl)c2Cl)ncc1CN(C)C(C)C` [Example 63, (Z)-4-(2-(2-((2,2′-dichloro-3′-(2-fluoro-2-(5-((isopropyl(methyl)amino)methyl)-4-methoxypyridin-2-yl)vinyl)-[1,1′-biphenyl]-3-yl)carbamoyl)-1-methyl-1,4,6,7-tetrahydro-5H-imidazo[4,5-c]pyridin-5-yl)ethyl)bicyclo[2.2.1]heptane-1-carboxylic acid], the EC50 was found to be 0.159 µM. To `COc1cc(/C(F)=C/c2cccc(-c3cccc(NC(=O)c4nc5c(n4C)CCN(CCC46CCC(C(=O)O)(CC4)C6)C5)c3Cl)c2Cl)ncc1CN1CCC(C)(C)C1` [Example 64, (Z)-4-(2-(2-((2,2′-dichloro-3′-(2-(5-((3,3-dimethylpyrrolidin-1-yl)methyl)-4-methoxypyridin-2-yl)-2-fluorovinyl)-[1,1′-biphenyl]-3-yl)carbamoyl)-1-methyl-1,4,6,7-tetrahydro-5H-imidazo[4,5-c]pyridin-5-yl)ethyl)bicyclo[2.2.1]heptane-1-carboxylic acid] belongs 0.113 µM. For the compound `COc1cc(/C(F)=C/c2cccc(-c3cccc(NC(=O)c4nc5c(n4C)CCN(CCC46CCC(C(=O)O)(CC4)C6)C5)c3Cl)c2Cl)ncc1CN1CCCCC1` [Example 65, (Z)-4-(2-(2-((2,2′-dichloro-3′-(2-fluoro-2-(4-methoxy-5-(piperidin-1-ylmethyl)pyridin-2-yl)vinyl)-[1,1′-biphenyl]-3-yl)carbamoyl)-1-methyl-1,4,6,7-tetrahydro-5H-imidazo[4,5-c]pyridin-5-yl)ethyl) bicyclo[2.2.1]heptane-1-carboxylic acid], the concentration for a half-maximal effect (EC50) is 0.137 µM. On to `COc1cc(/C(F)=C/c2cccc(-c3cccc(NC(=O)c4nc5c(n4C)CCN(CCC46CCC(C(=O)O)(CC4)C6)C5)c3Cl)c2Cl)ncc1CN1CC[C@@H](N(C)C)C1` [Example 66, (R,Z)-4-(2-(2-((2,2′-dichloro-3′-(2-(5-((3-(dimethylamino)pyrrolidin-1-yl)methyl)-4-methoxypyridin-2-yl)-2-fluorovinyl)-[1,1′-biphenyl]-3-yl)carbamoyl)-1-methyl-1,4,6,7-tetrahydro-5H-imidazo[4,5-c]pyridin-5-yl)ethyl)bicyclo[2.2.1]heptane-1-carboxylic acid], for which the EC50 is 0.347 µM. Take `COc1cc(/C(F)=C/c2cccc(-c3cccc(NC(=O)c4nc5c(n4C)CCN(CCC46CCC(C(=O)O)(CC4)C6)C5)c3Cl)c2Cl)ncc1CN1CCCC1(C)C` [Example 67, (Z)-4-(2-(2-((2,2′-dichloro-3′-(2-(5-((2,2-dimethylpyrrolidin-1-yl)methyl)-4-methoxypyridin-2-yl)-2-fluorovinyl)-[1,1′-biphenyl]-3-yl)carbamoyl)-1-methyl-1,4,6,7-tetrahydro-5H-imidazo[4,5-c]pyridin-5-yl)ethyl)bicyclo[2.2.1]heptane-1-carboxylic acid]: the EC50 came out at 0.0541 µM.
